The values that follow come from PubChem BioAssay (NCI).

Test systems include A549 NSCLC; HCT-116 colon; HCT-15 colon; K-562 leukemia; KM12 colon; M14 melanoma; NCI/ADR-RES ovarian; OVCAR-5 ovarian; SF-295 CNS; SF-539 CNS.
Assay in all cases: growth of human tumour cells (NCI), 48 h

SMILES strings stand for the structures.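 Compound exposure: 48 hours, 5 concentrations, 96-well plates. GI50 = concentration required for 50% inhibition of growth. At the TGI there is no net growth.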

As to `CC(C)[C@@H](CS(=O)(=O)C(C)C)N1C(=O)[C@@](C)(CC(=O)O)C[C@H](c2cccc(Cl)c2)[C@H]1c1ccc(Cl)cc1`, the GI50 was 0.464 µM in the assay on A549 NSCLC; 0.454 µM in the assay on HCT-116 colon; 15.3 µM in the assay on HCT-15 colon; 18.3 µM with K-562 leukemia; 16 µM in the assay on KM12 colon; 14.1 µM in the assay on M14 melanoma. The GI50 is 24.7 µM in the assay with NCI/ADR-RES ovarian, 25.7 µM in the assay with OVCAR-5 ovarian, 9.09 µM in the assay on SF-295 CNS and 14 µM in the assay with SF-539 CNS. Further, the TGI in the assay with A549 NSCLC was 19.8 µM; in the assay on HCT-116 colon it was 17.2 µM; in the assay with HCT-15 colon it was greater than 69.3 µM; in the assay with K-562 leukemia, greater than 100 µM; in the assay on KM12 colon it was greater than 51.6 µM; in the assay on M14 melanoma, 59.6 µM. In addition, the TGI is greater than 100 µM in the assay with NCI/ADR-RES ovarian, greater than 100 µM in the assay with OVCAR-5 ovarian, 33.2 µM with SF-295 CNS and 35.9 µM in the assay with SF-539 CNS.
With `CC(=O)OC1=C2C(CC3C4CC=C5CC(OC(C)=O)CCC5(C)C4CCC23C)C2C(=O)N(Cc3ccccc3)C(=O)C2C1` (centres undefined), the GI50 in the assay on A549 NSCLC is 4.33 µM; with HCT-116 colon it was 3.82 µM; in the assay on HCT-15 colon it was 3.09 µM; with K-562 leukemia it was 4.33 µM; in the assay with KM12 colon it was 5.98 µM; in the assay on M14 melanoma, 7.77 µM. The GI50 with NCI/ADR-RES ovarian is 5.53 µM; in the assay on OVCAR-5 ovarian it was 50.3 µM; with SF-295 CNS, 10.8 µM; in the assay on SF-539 CNS, 3.48 µM. The TGI in the assay on A549 NSCLC is 34 µM; in the assay on HCT-116 colon it was 17.2 µM; in the assay on HCT-15 colon, greater than 100 µM; with K-562 leukemia, greater than 100 µM; with KM12 colon, 46.8 µM; in the assay with M14 melanoma, 75.3 µM. The TGI in the assay with NCI/ADR-RES ovarian was 28.2 µM; in the assay with OVCAR-5 ovarian, greater than 100 µM; with SF-295 CNS, greater than 100 µM; with SF-539 CNS, 14.4 µM.
As for `Oc1ccc(SCc2ccc(NCc3ccccc3)cc2)cc1`, the TGI was 56.7 µM in the assay on A549 NSCLC; greater than 100 µM with HCT-116 colon; greater than 100 µM in the assay on HCT-15 colon; greater than 100 µM with K-562 leukemia; greater than 100 µM in the assay with KM12 colon; 44.5 µM with M14 melanoma. Also, the TGI in the assay with NCI/ADR-RES ovarian was greater than 100 µM; with OVCAR-5 ovarian it was 69.3 µM; in the assay on SF-295 CNS it was greater than 100 µM; in the assay with SF-539 CNS it was greater than 100 µM.
On to `COc1ccc(-c2nn(-c3cccc(NC(=O)Nc4cccc(C(F)(F)F)c4)c3)cc2-c2ccncc2)cc1Cl`, for which the GI50 in the assay with A549 NSCLC was 1.83 µM; in the assay with HCT-116 colon, 1.31 µM; in the assay with HCT-15 colon, 1.81 µM; in the assay with K-562 leukemia, 1.92 µM; in the assay with KM12 colon, 1.47 µM; in the assay with M14 melanoma it was 1.63 µM. Further, the GI50 in the assay with NCI/ADR-RES ovarian was 2.29 µM; with OVCAR-5 ovarian, 3.73 µM; with SF-295 CNS, 1.69 µM; in the assay on SF-539 CNS, 1.97 µM. Further, the TGI was greater than 100 µM in the assay with A549 NSCLC; 9.04 µM in the assay on HCT-116 colon; greater than 100 µM with HCT-15 colon; greater than 100 µM in the assay on K-562 leukemia; 5.23 µM in the assay on KM12 colon; 4.62 µM in the assay on M14 melanoma. Further, the TGI in the assay on NCI/ADR-RES ovarian is greater than 100 µM; with OVCAR-5 ovarian, greater than 100 µM; in the assay on SF-295 CNS, 7.32 µM; with SF-539 CNS, 6.45 µM.
As for `COc1ccc(-c2c(C#N)c(N)nc3c2CCCc2ccc(F)cc2-3)cc1OC`, the GI50 with A549 NSCLC is 0.174 µM; with HCT-116 colon, 0.187 µM; with HCT-15 colon it was less than 0.0497 µM; in the assay with K-562 leukemia, less than 0.01 µM; in the assay with KM12 colon it was less than 0.01 µM; with M14 melanoma it was 0.0758 µM. Besides, the GI50 with NCI/ADR-RES ovarian is 0.48 µM; in the assay with OVCAR-5 ovarian, 8.97 µM; in the assay on SF-295 CNS it was less than 0.01 µM; with SF-539 CNS, less than 0.01 µM. The TGI is greater than 54 µM with A549 NSCLC; 11 µM in the assay on HCT-116 colon; 0.504 µM with HCT-15 colon; greater than 100 µM in the assay on K-562 leukemia; 2.58 µM with KM12 colon; 0.402 µM in the assay with M14 melanoma. Also, the TGI with NCI/ADR-RES ovarian is greater than 100 µM; in the assay on OVCAR-5 ovarian, greater than 100 µM; with SF-539 CNS, 0.0213 µM.
On to `Oc1ccc(-c2nc3ccc4[nH]ncc4c3c3c2CCCC3)c2cccnc12`, for which the GI50 was 0.134 µM with A549 NSCLC; 0.228 µM in the assay with HCT-116 colon; 0.153 µM in the assay with HCT-15 colon; 0.139 µM in the assay with K-562 leukemia; 0.311 µM in the assay on KM12 colon; 0.163 µM in the assay with M14 melanoma. Moreover, the GI50 was 0.167 µM with NCI/ADR-RES ovarian, 1.16 µM in the assay on OVCAR-5 ovarian, 0.339 µM with SF-295 CNS and 0.145 µM in the assay with SF-539 CNS. The TGI in the assay with A549 NSCLC turned out to be 2.14 µM; in the assay on HCT-116 colon, 4.14 µM; in the assay with HCT-15 colon it was 7.3 µM; in the assay with K-562 leukemia, 33.3 µM; in the assay on KM12 colon it was 7.93 µM; in the assay on M14 melanoma, 2.21 µM. For the same compound, the TGI in the assay on NCI/ADR-RES ovarian came out at 4.61 µM; in the assay on OVCAR-5 ovarian, 14.7 µM; in the assay with SF-295 CNS, 2.68 µM; in the assay on SF-539 CNS it was 1.87 µM.
As to `C=C1C(=O)O[C@H]2[C@H]1CC(=O)/C(C)=C\CC[C@@]1(C)O[C@@H]21`, the GI50 with A549 NSCLC was 5.21 µg/mL; in the assay with HCT-116 colon it was 1.26 µg/mL; in the assay on HCT-15 colon, 0.83 µg/mL; with K-562 leukemia, 0.842 µg/mL; in the assay on KM12 colon it was 4.77 µg/mL; in the assay with M14 melanoma, 3.38 µg/mL. Moreover, the GI50 in the assay on NCI/ADR-RES ovarian is 1.1 µg/mL; in the assay on OVCAR-5 ovarian it was 4.16 µg/mL; with SF-295 CNS, 5.55 µg/mL; in the assay with SF-539 CNS, 2.64 µg/mL. Also, the TGI in the assay with A549 NSCLC was 11.3 µg/mL; with HCT-116 colon, 4.97 µg/mL; with HCT-15 colon it was 3.68 µg/mL; in the assay on K-562 leukemia it was 4.15 µg/mL; with KM12 colon it was 8.79 µg/mL; with M14 melanoma, 11.8 µg/mL. The TGI with NCI/ADR-RES ovarian is 4.45 µg/mL; with OVCAR-5 ovarian, 8.24 µg/mL; with SF-295 CNS, 12.4 µg/mL; with SF-539 CNS, 7.16 µg/mL.
For `COC(=O)[C@H](Cc1ccccc1)NC(=O)[C@@H](OC)[C@@H]1Cc2cc3cc(OC4CC(OC5CC(O)C(O)C(C)O5)C(O)C(C)O4)c(C)c(O)c3c(O)c2C(=O)[C@H]1OC1CC(OC2CC(OC3CC(C)(O)C(O)C(C)O3)C(O)C(C)O2)C(O)C(C)O1` (some centres undefined), the GI50 in the assay on A549 NSCLC was 0.0532 µM; with HCT-116 colon, 0.00587 µM; in the assay with HCT-15 colon, 0.0725 µM; in the assay on K-562 leukemia it was 0.0312 µM; in the assay on KM12 colon, 0.0148 µM; with M14 melanoma, 0.0267 µM. For the same compound, the GI50 in the assay with NCI/ADR-RES ovarian was 4.22 µM; in the assay on OVCAR-5 ovarian, 0.0396 µM; in the assay on SF-295 CNS, 0.025 µM; in the assay on SF-539 CNS, 0.0088 µM. The TGI in the assay with A549 NSCLC was greater than 14.3 µM; in the assay on HCT-116 colon, greater than 14.3 µM; in the assay with HCT-15 colon it was greater than 14.3 µM; in the assay with K-562 leukemia it was greater than 14.3 µM; in the assay with KM12 colon, 0.12 µM; with M14 melanoma, 0.105 µM. Besides, the TGI was greater than 14.3 µM with NCI/ADR-RES ovarian, greater than 14.3 µM with OVCAR-5 ovarian, 1.7 µM in the assay on SF-295 CNS and 0.065 µM in the assay with SF-539 CNS.
